Data as given in patent publication US9656984B2, “PI3K/AKT/mTOR inhibitors and pharmaceutical uses thereof” (UNIVERSITE DE RENNES 1, priority 2013, dated 2017).
pIC50: −log10 of the molar value.

What was measured:
Leukemic T-cell line CEM = experiment: Cytotoxic effect by MTT assay, CEM; format: cell-based; settings: 24 hours, FIGS. 2 to 5
Description: (§1) Leukemic T-cell lines Jurkat and CEM were incubated for 24 hours (see FIGS. 1, 2, 3, 4 and 5) or for 20 hours (see FIG. 6) with compounds of formula (I) and with compound A, at the indicated concentrations and cell death was assessed using the viability assay MTT, which estimates the metabolic state of the cell.
(§2) Cell viability was assessed using the 3-[4,5-dimethylthiazol-2-yl]-2,5-diphenyltetrazolium bromide (MTT) viability assay (1). In brief, cells (4×10^4 per well) were cultured for 20 h in flat-bottomed 96 well plates with various concentrations of the apoptosis inducer. Then 0.015 ml of MTT (5 mg/ml in PBS) was added to each well and incubated for 4 h at 37° C. Formazan salt precipitats were dissolved by adding 0.115 ml of isopropyl alcohol containing 1% formic acid (v/v), and the absorbance was measured at 570 nm.

[1] = tested on: Leukemic T-cell line Jurkat; experiment: Cytotoxic effect by MTT assay, Jurkat; format: cell-based; settings: 24 hours (FIG. 1) or 20 hours (FIG. 6)
Description: as §1, §2

[2] = tested on: PI3K/AKT activity (AKT phosphorylation); experiment: PI3K/AKT/mTOR pathway inhibitory activity: level of AKT phosphorylation in CEM cells over time; format: cell-based, human; settings: 10 μM, FIGS. 7 and 8
Description: The CEM cell was incubated with 10 μM of each mentioned compound of formula (I) for the indicated times and then cells were lysed and 100 μg of protein was loaded per line and resolved by SDS-PAGE. The levels of AKT phosphorylation (hallmark of PI3K activation) and total AKT (loading control) were analyzed by Western blot and the amount of AKT phosphorylation relative to the total amount of protein AKT was quantified by densitometric analysis, the intensity of each band was scanned and the level of AKT phosphorylation was reported to the amount of whole AKT and the percentage of phosphorylated-AKT was depicted.
(§3) Immunoblots Excepted for immunoprecipitation experiments in which cells were lyzed with RIPA buffer, cells were lyzed for 30 min at 4° C. in Lysis buffer (25 mM HEPES pH 7.4, 1% v/v Triton X-100, 150 mM NaCl, 2 mM EGTA supplemented with a mix of protease inhibitors). Protein concentration was determined by the bicinchoninic acid method (Pierce, Rockford, Ill., USA) according to the manufacturer's protocol. Proteins were resolved by 8, 10 or 12% SDS-PAGE and transferred to a nitrocellulose membrane (GE Healthcare, Buckinghamshire, UK). The membrane was blocked 15 min with TBST (50 mM Tris, 160 mM NaCl, 0.05% v/v Tween 20, pH 7.4) containing 5% w/v dried skimmed milk (TBS™). Primary antibody was incubated overnight at 4° C. in TBS™. The membrane was intensively washed (TBST) and then the peroxydase-labeled anti-mouse IgG1 or IgG2a (CliniSciences, Nanterre, France) was added for 45 min. Proteins were visualized with the enhanced chemiluminescence substrate kit (ECL RevelBIOt®, Ozyme, Saint Quentin en Yvelines, France).

mTORC1 = mTORC1 (Homo sapiens, UniProt P42345); experiment: Immunoblot of 4EBP1 threonines 37/46 phosphorylation (targets of mTORC1); format: cell-based; design: endogenous in cells; settings: with increasing compound concentrations, FIG. 12A
Description: (§4) The inhibition of the phosphorylation level of AKT at serine 473, target of mTORC2, and 4EBP1 (also called Eukaryotic translation initiation factor 4E-binding protein 1) at threonines 37/46, which are targets of mTORC1, by compound 48 (compound 25 linked to biotin) was assessed by immunoblotting. Total AKT and 4EBP1 were added as loading controls.
as §3

mTOR = molecular target: T1, mTOR (Homo sapiens, UniProt P42345); experiment: Biotin pull-down with streptavidin-coated beads from CEM cells, mTOR immunoblot; format: binding; settings: 1 μM, CEM leukemic T cells, FIG. 12B
T1 construct: endogenous in cells; host or cells: CEM leukemic T cells
Description: Compounds 25 and 48 (compound 25 linked to biotin) (1 μM) were incubated with CEM leukemic T cells for indicated times. Then cells were lyzed in RIPA buffer and biotin was immunoprecipitated using streptavidin-coated magnetic beads. Beads were washed and the presence of mTOR was analyzed in compound 48-associated complex by Immunoblotting.
CEM cells (10^7 cells) were pre-incubated for indicated times with 1 μM of compound 25 or compound 48, washed with PBS and lysed using RIPA buffer [50 mM Tris pH7.4, 1% NP-40, 0.5% Na-deoxycholate, 0.1% SDS, 150 mM NaCl, 2 mM EDTA, inhibitors of protease and phosphatase (Sigma)].

mTORC2 = mTORC2 (Homo sapiens, UniProt P42345); experiment: Immunoblot of AKT serine 473 phosphorylation (target of mTORC2); format: cell-based; design: endogenous in cells; settings: with increasing compound concentrations, FIG. 12A
Description: as §4, §3

AKT phosphorylation = experiment: In cellulo IC50 of AKT phosphorylation in CEM cells (Western blot densitometry); format: cell-based; settings: Homo sapiens, CCRF-CEM, 2 hours incubation, AKT phosphorylation vs whole AKT, read-out: In vivo IC50
Description: CEM cells were incubated for 2 hours with the indicated concentrations of each mentioned compound of formula (I). Cells were then lysed and 100 μg of protein was loaded per line in an SDS-PAGE. Bands from AKT phosphorylation and whole AKT observed by Western blot were scanned and quantified by densitometric analysis. Based on these values, an in cellulo IC50 (half maximal inhibitory concentration) was measured for each compound of formula (I).
as §3

[3] = tested on: T47-D (ER-positive) breast tumor cell line; experiment: Cell death by MTT assay, T47-D; format: cell-based, human; settings: 24 hours, mean of four experiments
Description: (§5) The ER-positive breast tumor cell lines MCF-7 and T47-D and the HER2 positive breast tumor cell lines MDA-MB-453 and BT474 (also ER-positive) were incubated with the indicated concentration of each mentioned compound of formula (I) for 24 hours and then cell death was assessed using MTT assay.
(§6) For each cell line, the percentage of cell death (mean of four experiments for cell lines MCF-7 and T47-D, and two experiments for cell lines MDA-MB-453 and BT474) is given in view of the increasing concentration of each tested compound of the invention.
as §2

[4] = tested on: MCF-7 (ER-positive) breast tumor cell line; experiment: Cell death by MTT assay, MCF-7; format: cell-based, human; settings: 24 hours, mean of four experiments
Description: as §5, §6, §2

[5] = tested on: BT474 (ER-positive/HER2-positive) breast tumor cell line; experiment: Cell death by MTT assay, BT474; format: cell-based, human; settings: 24 hours, mean of two experiments
Description: as §5, §6, §2

[6] = tested on: MDA-MB-453 (HER2 positive) breast tumor cell line; experiment: Cell death by MTT assay, MDA-MB-453; format: cell-based, human; settings: 24 hours, mean of two experiments
Description: as §5, §6, §2

For CCOc1cccc2c1OC(c1ccc(F)cc1)C([N+](=O)[O-])=C2 (stereo not shown) [A], the “percentage of cell death (cytotoxic effect)” value (Leukemic T-cell line CEM) was “lower percentage of cell death”, the “percentage of cell death (cytotoxic effect)” value [1] was “lower percentage of cell death” and the “inhibitory activity on PI3K/AKT (level of AKT phosphorylation)” value [2] was “very weak inhibitory activity”.

With O=C(CCCCC1SC[C@@H]2NC(=O)N[C@H]12)NCCCOc1cc(Br)c2c(c1)C=C([N+](=O)[O-])C(c1ccc(Br)cc1)O2 (stereo partly shown) [Compound 48] the “phosphorylation of 4EBP1 at threonines 37/46” value (mTORC1) was “decreases”, the “binding to mTOR” value (mTOR) was “binds to mTOR” and the “phosphorylation of AKT at serine 473” value (mTORC2) was “decreases”.

O=c1cc(N2CCOCC2)oc2c(-c3ccccc3)cccc12 [LY294002, reference compound] was tested, and the pIC50 (AKT phosphorylation) was less than 5.00, the “percentage of cell death (cytotoxic effect)” value (Leukemic T-cell line CEM) was “much lower cell death percentage” and the “percentage of cell death” value ([3]; 6.25 μM) was 32.33%. The “percentage of cell death” value ([3]; 12.5 μM) was 40.42%, the “percentage of cell death” value ([3]; 25 μM) was 50.01% and the “percentage of cell death” value ([3]; 50 μM) was 55.69%. For the same compound, the “percentage of cell death” value ([4]; MCF-7, 6.25 μM) was 11.53%, the “percentage of cell death” value ([4]; MCF-7, 12.5 μM) was 11.067% and the “percentage of cell death” value ([4]; MCF-7, 25 μM) was 13.51%. The “percentage of cell death” value ([4]; MCF-7, 50 μM) was 18.89%, the “percentage of cell death” value ([5]; BT474, 6.25 μM) was 35.35% and the “percentage of cell death” value ([5]; BT474, 12.5 μM) was 48.7%. The “percentage of cell death” value ([5]; BT474, 25 μM) was 62.79%, the “percentage of cell death” value ([5]; BT474, 50 μM) was 77.2% and the “percentage of cell death” value ([6]; MDA-MB-453, 0.390625 μM) was 0%. For the same compound, the “percentage of cell death” value ([6]; MDA-MB-453, 0.78125 μM) was 0%, the “percentage of cell death” value ([6]; MDA-MB-453, 1.5625 μM) was 0% and the “percentage of cell death” value ([6]; MDA-MB-453, 3.125 μM) was 0%. For the same compound, the “percentage of cell death” value ([6]; MDA-MB-453, 6.25 μM) was 17.45%, the “percentage of cell death” value ([6]; MDA-MB-453, 12.5 μM) was 53.74% and the “percentage of cell death” value ([6]; MDA-MB-453, 25 μM) was 76.61%. The “percentage of cell death” value ([6]; MDA-MB-453, 50 μM) was 86.55%.
